Target: E275C gp120 (Human immunodeficiency virus type 1 group M subtype B, UniProt P35961, E271C)
Assay: covalent labeling
Assay type: biochemical, HIV-1
Conditions: α-biotin Western blot, reactants in 2-fold excess (Figure 3)

Structure (SMILES): O=C(CCCC[C@@H]1SC[C@@H]2NC(=O)N[C@@H]21)NCCOCCOCCNC(=O)CCN1C(=O)C=CC1=O [MPB, Maleimide-PEG2-biotin, reference compound]
- biotinylation (labeling) of E275C gp120: yields significantly lower
